Data: US20080063636A1, “Variant Amyloid Protein” (priority 2004, published 2008)

Tested on: human cultured cell HEK cells
Experiment: Quantification of amyloid protein secreted by HEK cells expressing APP cDNA
Format: cell-based
Parameters: Aβ42: unit not given here
Settings: secreted by HEK cells expressing the APP cDNA, 2 days, culture supernatant
Excerpt: Since the variant APP gene cDNA obtained in Example 1 had the variant inside the amyloid protein, a β secretase or γ secretase cleavage site was examined. Then, an expression vector of the variant APP gene cDNA was introduced into human cultured cell HEK cells known to express APP as well as to produce and secrete amyloid protein. The expression was left to occur for 2 days to obtain a culture supernatant, and an immunoprecipitated fraction obtained by using an anti-amyloid protein antibody was subjected to a mass analysis with the use of AXIMA-CFR manufactured by Shimadzu Corporation.
Note that a vacant expression vector dissolved into a normal saline was used as the control in Table 1. Also, Aβ42 represents Aβ1-42 and Aβ1-43 or Aβ1-42 (ΔE) and Aβ1-43 (ΔE), and Aβ40 represents Aβ1-40 or Aβ1-40 (ΔE).

Wildtype APP: wildtype amyloid precursor protein expressed in human cultured HEK cells
Aβ40 (Aβ40 = Aβ1-40 or Aβ1-40 (ΔE)): 200 pg/mL | Aβ42 (Aβ42 = Aβ1-42 and Aβ1-43 or their ΔE forms): 26
